What was measured:
Aurora kinase B = Aurora kinase B (Homo sapiens, UniProt Q96GD4); experiment: Percentage Aurora B activity remaining in the presence of 25uM inhibitor
[1] = biological target: Serine/threonine-protein kinase pim-2 (Homo sapiens, UniProt Q9P1W9); experiment: Percentage PIM2 activity remaining in the presence of 25uM inhibitor
[2] = biological target: MAP kinase-interacting serine/threonine-protein kinase 2 (Homo sapiens) (UniProt Q9HBH9); experiment: Percentage MNK2 activity remaining in the presence of 25uM inhibitor
[3] = biological target: Homeodomain-interacting protein kinase 2 (Homo sapiens) (UniProt Q9H2X6); experiment: Percentage HIPK2 activity remaining in the presence of 25uM inhibitor
[4] = biological target: MAP/microtubule affinity-regulating kinase 3 (Homo sapiens) (UniProt P27448); experiment: Percentage MARK3 activity remaining in the presence of 25uM inhibitor
[5] = biological target: Serine/threonine-protein kinase PAK 6 (Homo sapiens) (UniProt Q9NQU5); experiment: Percentage PAK6 activity remaining in the presence of 25uM inhibitor
[6] = biological target: Casein kinase I isoform delta (Homo sapiens, UniProt P48730); experiment: Percentage CK1delta activity remaining in the presence of 25uM inhibitor; conditions: filed as antagonist
[7] = biological target: Calcium/calmodulin-dependent protein kinase kinase 2 (Homo sapiens) (UniProt Q96RR4); experiment: Percentage CaMKKbeta activity remaining in the presence of 25uM inhibitor
[8] = biological target: cAMP-dependent protein kinase catalytic subunit alpha (Homo sapiens, UniProt P17612); experiment: Percentage PKA activity remaining in the presence of […]uM inhibitor; conditions: at 25 µM
[9] = biological target: Dual specificity mitogen-activated protein kinase kinase 1 (Homo sapiens) (UniProt Q02750); experiment: Percentage MKK1 activity remaining in the presence of 25uM inhibitor
[10] = biological target: T1, Serine/threonine-protein kinase D1 (Homo sapiens) (UniProt Q15139); experiment: Percentage PKD1 activity remaining in the presence of 25uM inhibitor
T1 sequence (whole entry): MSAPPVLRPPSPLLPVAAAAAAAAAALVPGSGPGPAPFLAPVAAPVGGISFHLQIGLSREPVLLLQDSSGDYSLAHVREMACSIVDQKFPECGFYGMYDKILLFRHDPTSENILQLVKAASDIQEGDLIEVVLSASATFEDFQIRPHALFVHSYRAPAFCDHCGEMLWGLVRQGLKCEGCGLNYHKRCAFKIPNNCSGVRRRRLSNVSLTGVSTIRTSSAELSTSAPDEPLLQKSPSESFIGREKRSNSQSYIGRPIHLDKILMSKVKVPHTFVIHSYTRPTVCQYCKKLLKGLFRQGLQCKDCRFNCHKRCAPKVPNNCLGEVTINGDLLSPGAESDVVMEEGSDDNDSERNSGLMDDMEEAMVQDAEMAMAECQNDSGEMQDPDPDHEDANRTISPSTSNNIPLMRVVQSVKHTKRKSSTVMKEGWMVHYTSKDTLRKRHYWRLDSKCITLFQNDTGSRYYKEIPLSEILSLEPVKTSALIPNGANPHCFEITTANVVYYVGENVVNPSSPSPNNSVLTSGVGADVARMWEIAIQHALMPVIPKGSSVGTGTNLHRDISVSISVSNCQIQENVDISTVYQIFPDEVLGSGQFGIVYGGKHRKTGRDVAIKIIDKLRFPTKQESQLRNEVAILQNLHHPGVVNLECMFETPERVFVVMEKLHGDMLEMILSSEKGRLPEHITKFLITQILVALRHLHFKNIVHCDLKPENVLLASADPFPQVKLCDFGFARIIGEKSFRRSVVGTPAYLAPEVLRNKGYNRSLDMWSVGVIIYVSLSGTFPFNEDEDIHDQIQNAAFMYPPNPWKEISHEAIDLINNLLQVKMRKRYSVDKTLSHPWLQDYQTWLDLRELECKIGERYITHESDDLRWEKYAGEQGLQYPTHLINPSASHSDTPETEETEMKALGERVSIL

[11] = biological target: Ribosomal protein S6 kinase beta-1 (Homo sapiens, UniProt P23443); experiment: Percentage S6K1 activity remaining in the presence of 25uM inhibitor
[12] = biological target: Casein kinase II (Homo sapiens) (UniProt P67870+P68400+P19784); experiment: Percentage CK2 activity remaining in the presence of 25uM inhibitor; type: protein-complex assay
[13] = biological target: T2, Serine/threonine-protein kinase pim-3 (Homo sapiens, UniProt Q86V86); experiment: Percentage PIM3 activity remaining in the presence of 25uM inhibitor; conditions: filed as antagonist
[14] = biological target: MAP kinase-interacting serine/threonine-protein kinase 1 (Homo sapiens) (UniProt Q9BUB5); experiment: Percentage MNK1 activity remaining in the presence of 25uM inhibitor
[15] = biological target: T3, Serine/threonine-protein kinase Chk1 (Homo sapiens) (UniProt O14757); experiment: Percentage CHK1 activity remaining in the presence of 0.01uM inhibitor
T3 sequence (whole entry): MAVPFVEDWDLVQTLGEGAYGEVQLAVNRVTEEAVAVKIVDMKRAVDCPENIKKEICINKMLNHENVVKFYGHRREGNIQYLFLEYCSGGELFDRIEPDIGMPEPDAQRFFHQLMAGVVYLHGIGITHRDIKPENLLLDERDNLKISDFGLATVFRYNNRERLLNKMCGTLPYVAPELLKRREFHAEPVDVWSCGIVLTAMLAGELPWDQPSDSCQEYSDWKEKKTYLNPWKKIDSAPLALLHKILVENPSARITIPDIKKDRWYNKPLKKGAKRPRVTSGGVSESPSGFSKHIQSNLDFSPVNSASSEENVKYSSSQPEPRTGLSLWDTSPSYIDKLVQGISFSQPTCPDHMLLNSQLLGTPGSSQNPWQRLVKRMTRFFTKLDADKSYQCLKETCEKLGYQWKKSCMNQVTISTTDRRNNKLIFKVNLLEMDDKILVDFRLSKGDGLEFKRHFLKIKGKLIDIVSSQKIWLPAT

[16] = biological target: Serine/threonine-protein kinase Nek7 (Homo sapiens) (UniProt Q8TDX7); experiment: Percentage NEK7 activity remaining in the presence of 0.01uM inhibitor
[17] = biological target: T2, Serine/threonine-protein kinase pim-3; experiment: Percentage PIM3 activity remaining in the presence of 0.01uM inhibitor
[18] = biological target: Glycogen synthase kinase-3 beta (Homo sapiens, UniProt P49841); experiment: Percentage GSK3-beta activity remaining in the presence of 0.01uM inhibitor
[19] = biological target: RAC-alpha serine/threonine-protein kinase (Homo sapiens) (UniProt P31749); experiment: Percentage PKBalpha activity remaining in the presence of 0.01uM inhibitor
Chain of RAC-alpha serine/threonine-protein kinase (Homo sapiens) (P31749 whole entry): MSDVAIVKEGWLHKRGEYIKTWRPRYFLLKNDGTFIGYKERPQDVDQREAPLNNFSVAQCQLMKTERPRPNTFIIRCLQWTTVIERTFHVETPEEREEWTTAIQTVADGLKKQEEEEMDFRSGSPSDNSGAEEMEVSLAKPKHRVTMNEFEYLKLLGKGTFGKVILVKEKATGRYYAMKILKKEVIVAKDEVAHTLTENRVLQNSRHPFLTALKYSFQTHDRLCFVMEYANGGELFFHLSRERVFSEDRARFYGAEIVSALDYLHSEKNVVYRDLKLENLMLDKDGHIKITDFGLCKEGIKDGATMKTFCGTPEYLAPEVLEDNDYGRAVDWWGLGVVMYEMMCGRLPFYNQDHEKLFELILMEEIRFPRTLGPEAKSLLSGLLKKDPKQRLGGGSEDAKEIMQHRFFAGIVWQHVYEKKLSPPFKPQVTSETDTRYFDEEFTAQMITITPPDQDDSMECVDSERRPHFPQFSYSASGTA

Chain of Serine/threonine-protein kinase Nek7 (Homo sapiens) (Q8TDX7 whole entry, looked up): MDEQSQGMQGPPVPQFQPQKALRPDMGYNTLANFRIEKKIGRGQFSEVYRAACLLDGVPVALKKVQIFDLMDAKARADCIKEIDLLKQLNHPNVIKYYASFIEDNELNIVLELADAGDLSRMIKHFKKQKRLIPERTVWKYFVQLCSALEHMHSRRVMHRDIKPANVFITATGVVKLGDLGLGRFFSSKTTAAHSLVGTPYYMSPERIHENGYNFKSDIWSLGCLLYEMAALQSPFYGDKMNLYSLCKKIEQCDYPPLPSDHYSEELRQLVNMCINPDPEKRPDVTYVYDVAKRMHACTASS
Chain of Glycogen synthase kinase-3 beta (P49841 whole entry, looked up): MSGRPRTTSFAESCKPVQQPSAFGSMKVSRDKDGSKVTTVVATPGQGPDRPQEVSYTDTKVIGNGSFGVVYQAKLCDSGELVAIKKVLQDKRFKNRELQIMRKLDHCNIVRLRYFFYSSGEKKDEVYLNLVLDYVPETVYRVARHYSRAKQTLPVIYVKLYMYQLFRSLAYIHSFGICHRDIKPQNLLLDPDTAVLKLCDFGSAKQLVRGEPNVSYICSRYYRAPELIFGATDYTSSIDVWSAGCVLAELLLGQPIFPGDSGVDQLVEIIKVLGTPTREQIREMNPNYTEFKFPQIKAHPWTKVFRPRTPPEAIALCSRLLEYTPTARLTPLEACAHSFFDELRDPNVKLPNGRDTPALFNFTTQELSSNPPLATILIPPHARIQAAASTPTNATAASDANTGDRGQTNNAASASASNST
Chain of MAP/microtubule affinity-regulating kinase 3 (Homo sapiens) (P27448 whole entry, looked up): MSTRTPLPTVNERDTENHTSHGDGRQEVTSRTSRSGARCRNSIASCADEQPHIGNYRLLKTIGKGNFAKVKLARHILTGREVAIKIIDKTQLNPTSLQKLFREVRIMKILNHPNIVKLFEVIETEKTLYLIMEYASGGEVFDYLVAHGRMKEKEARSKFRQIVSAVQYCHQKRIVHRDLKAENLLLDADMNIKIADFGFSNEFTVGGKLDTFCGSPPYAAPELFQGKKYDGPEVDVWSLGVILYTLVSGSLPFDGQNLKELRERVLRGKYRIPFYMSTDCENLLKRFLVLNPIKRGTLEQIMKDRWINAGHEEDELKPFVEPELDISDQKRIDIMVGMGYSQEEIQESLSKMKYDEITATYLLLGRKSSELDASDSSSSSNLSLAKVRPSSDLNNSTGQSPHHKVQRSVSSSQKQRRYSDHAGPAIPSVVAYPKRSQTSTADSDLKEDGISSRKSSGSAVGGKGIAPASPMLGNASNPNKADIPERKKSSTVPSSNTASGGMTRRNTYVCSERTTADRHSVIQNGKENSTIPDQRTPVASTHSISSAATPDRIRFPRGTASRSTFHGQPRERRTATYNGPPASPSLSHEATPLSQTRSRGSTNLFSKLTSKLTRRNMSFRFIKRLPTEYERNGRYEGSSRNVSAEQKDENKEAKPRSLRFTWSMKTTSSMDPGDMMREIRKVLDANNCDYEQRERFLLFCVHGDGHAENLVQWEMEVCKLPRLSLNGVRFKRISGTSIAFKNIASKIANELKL
Chain of Serine/threonine-protein kinase PAK 6 (Homo sapiens) (Q9NQU5 whole entry, looked up, canonical isoform): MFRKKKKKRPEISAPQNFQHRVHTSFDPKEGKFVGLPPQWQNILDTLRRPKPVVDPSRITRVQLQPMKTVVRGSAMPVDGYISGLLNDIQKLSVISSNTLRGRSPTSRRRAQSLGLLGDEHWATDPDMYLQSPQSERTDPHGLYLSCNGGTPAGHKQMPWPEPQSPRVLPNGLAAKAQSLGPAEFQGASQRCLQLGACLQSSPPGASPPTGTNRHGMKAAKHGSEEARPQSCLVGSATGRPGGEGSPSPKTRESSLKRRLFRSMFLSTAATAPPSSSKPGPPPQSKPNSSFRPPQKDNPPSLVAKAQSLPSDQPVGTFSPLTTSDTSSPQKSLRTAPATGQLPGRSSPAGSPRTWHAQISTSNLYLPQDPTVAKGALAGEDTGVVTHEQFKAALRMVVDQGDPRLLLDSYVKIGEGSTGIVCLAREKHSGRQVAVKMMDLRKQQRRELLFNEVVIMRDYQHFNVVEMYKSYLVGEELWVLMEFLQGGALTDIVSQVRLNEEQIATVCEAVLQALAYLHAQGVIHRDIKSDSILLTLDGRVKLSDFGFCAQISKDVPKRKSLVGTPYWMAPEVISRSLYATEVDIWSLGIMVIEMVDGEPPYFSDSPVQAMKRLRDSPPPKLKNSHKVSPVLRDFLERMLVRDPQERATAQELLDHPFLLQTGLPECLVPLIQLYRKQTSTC
Chain of Aurora kinase B (Q96GD4 whole entry): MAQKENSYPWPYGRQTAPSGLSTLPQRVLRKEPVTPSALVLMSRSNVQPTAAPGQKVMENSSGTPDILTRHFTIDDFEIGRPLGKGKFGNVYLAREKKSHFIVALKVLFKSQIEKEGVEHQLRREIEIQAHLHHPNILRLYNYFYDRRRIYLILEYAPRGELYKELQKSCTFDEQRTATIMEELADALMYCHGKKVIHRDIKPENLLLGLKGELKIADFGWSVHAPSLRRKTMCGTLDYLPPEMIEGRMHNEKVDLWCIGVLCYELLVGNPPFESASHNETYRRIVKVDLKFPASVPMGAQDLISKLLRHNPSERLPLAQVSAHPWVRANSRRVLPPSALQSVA
Chain of Ribosomal protein S6 kinase beta-1 (P23443 whole entry, looked up): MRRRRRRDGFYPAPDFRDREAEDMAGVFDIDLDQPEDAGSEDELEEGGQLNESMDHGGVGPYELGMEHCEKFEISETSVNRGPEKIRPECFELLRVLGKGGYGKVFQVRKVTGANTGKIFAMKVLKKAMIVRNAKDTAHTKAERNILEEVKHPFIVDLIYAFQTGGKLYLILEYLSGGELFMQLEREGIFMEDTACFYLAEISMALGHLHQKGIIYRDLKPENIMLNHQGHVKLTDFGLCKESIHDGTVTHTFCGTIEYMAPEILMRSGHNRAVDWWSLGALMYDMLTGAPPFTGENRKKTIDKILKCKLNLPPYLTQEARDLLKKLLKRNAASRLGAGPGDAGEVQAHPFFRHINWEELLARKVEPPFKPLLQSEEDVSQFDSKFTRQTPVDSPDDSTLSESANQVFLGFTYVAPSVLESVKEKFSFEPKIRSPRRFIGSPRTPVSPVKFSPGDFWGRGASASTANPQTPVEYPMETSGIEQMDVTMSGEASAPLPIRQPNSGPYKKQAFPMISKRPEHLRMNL
Chain of Casein kinase I isoform delta (P48730 whole entry, looked up, canonical isoform): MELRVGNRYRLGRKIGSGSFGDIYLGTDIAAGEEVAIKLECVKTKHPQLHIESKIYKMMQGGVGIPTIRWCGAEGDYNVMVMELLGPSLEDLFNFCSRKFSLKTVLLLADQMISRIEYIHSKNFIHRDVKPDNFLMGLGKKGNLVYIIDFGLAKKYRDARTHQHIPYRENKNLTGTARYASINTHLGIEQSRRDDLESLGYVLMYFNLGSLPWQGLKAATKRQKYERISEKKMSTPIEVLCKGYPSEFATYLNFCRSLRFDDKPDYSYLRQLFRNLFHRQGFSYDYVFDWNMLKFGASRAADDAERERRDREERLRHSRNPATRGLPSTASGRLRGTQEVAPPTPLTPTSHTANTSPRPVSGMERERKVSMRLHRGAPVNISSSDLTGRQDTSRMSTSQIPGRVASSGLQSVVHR
Chain of MAP kinase-interacting serine/threonine-protein kinase 1 (Homo sapiens) (Q9BUB5 whole entry, looked up): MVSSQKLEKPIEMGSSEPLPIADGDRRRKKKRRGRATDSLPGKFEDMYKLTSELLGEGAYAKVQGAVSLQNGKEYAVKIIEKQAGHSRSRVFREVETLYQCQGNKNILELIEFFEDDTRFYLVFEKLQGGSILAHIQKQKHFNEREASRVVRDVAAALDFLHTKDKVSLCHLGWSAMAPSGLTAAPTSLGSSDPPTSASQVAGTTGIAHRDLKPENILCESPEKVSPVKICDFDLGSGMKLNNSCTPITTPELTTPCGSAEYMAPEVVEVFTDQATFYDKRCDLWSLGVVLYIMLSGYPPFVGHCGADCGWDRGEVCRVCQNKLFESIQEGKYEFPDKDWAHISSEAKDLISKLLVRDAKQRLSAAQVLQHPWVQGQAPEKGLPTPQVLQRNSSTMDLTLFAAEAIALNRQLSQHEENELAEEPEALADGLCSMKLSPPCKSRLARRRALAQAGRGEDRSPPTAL

| Compound | Activity (Aurora kinase B) | Activity [1] | Activity [2] | Activity [3] | Activity [4] | Activity [5] | Activity [6] | Activity [7] | Activity [8] | Activity [9] | Activity [10] | Activity [12] | Activity [13] | Activity [15] | Activity [16] | Activity [17] | Activity [18] | Activity [19] | other results |
| --- | --- | --- | --- | --- | --- | --- | --- | --- | --- | --- | --- | --- | --- | --- | --- | --- | --- | --- | --- |
| NCCNS(=O)(=O)c1ccc(Cl)c2ccncc12 | 78% | 55% | 76% | 98% | 78% | 78% | 12% | 86% | 65% | 76% | 60% | 65% | 28% | – | – | – | – | – | Activity ([11]; filed as antagonist): 49%; Activity ([14]; filed as antagonist): 26% |
| O=C(NCCCNc1nc(Nc2cccc(NC(=O)N3CCCC3)c2)ncc1I)c1cccs1 | – | – | – | – | – | – | – | – | – | – | – | – | – | 84% | 111% | 96% | 82% | 90% | – |
| COc1cc(OC)c(/C=C2/C(=O)Nc3ccccc32)c(OC)c1 | 75% | 75% | 97% | 96% | 88% | 76% | 9% | 86% | 82% | 86% | 62% | 97% | 41% | – | – | – | – | – | Activity [11]: 84%; Activity [14]: 79% |
| CN[C@@H]1C[C@H]2O[C@@](C)([C@@H]1OC)n1c3ccccc3c3c4c(c5c6ccccc6n2c5c31)C(=O)N[C@H]4O (stereo in doubt) | – | – | – | – | – | – | – | – | – | – | – | – | – | – | 99% | – | 77% | 79% | Activity ([15]; filed as antagonist): 12%; Activity ([17]; filed as antagonist): 8% |
| Cc1n[nH]c2ccc(-c3cncc(OC[C@@H](N)Cc4c[nH]c5ccccc45)c3)cc12 | – | – | – | – | – | – | – | – | – | – | – | – | – | 100% | 86% | 54% | 81% | – | Activity ([19]; filed as antagonist): 5% |

Source: ChEMBL document CHEMBL1150976, “The selectivity of protein kinase inhibitors: a further update” (Biochem J, 2007)
